Like-named read-outs stand apart in the source and are kept apart here.
How the values were obtained:
[1] = tested on: T. brucei (S427 single marker line); assay: microbe, parasite or virus in culture; type: cell-based, Trypanosoma brucei; details: for EC50: Trypanosoma brucei
[2] = tested on: MRC-5 cell line (normal diploid human fibroblasts); assay: cells; type: cell-based; details: MRC5, read-out: pEC50 MRC-5 (converted)
[3] = tested on: T. brucei; details: cited from earlier work

Compound: O=C(Cc1ccc(Cl)c(Cl)c1)Nc1ccccc1N1CCCC1 [Compound 44, 2-(3,4-Dichlorophenyl)-N-[2-(pyrrolidin-1-yl)phenyl]acetamide]
- fold loss of potency relative to 38 [1]: > 66 fold
- EC50 ([1]; 72 h, read-out: EC50 T. b. brucei): 17700 nM

Compound: N=C(N)c1ccc(OCCCCCOc2ccc(C(=N)N)cc2)cc1 [Pentamidine]
- EC50 ([1]; read-out: pEC50 T. brucei (converted)): 3.55 nM

Compound: COc1cccc2c1C(=O)c1c(O)c3c(c(O)c1C2=O)C[C@@](O)(C(=O)CO)C[C@@H]3O[C@H]1C[C@H](N)[C@H](O)[C@H](C)O1 [doxorubicin]
- EC50 [2]: 70.8 nM

Compound: NCCCC(N)(C(=O)O)C(F)F (centres unmarked) [eflornithine]
- Hill slope (s) [3]: 4.0

From publication PMC3229842 (Chemmedchem, 2011)
